Converted amounts (≈) assume the structure as drawn.
Experiments:
[1] = Hydrolysis in protein‐free buffer (data not published); type: physicochemical; conditions: over time
[2] = tested on: GH200 (scrambled sgRNA control); type: cell-based, M. bovis BCG
[3] = tested on: ClpP1P2; assay: Jump dilution experiment; type: biochemical, Mycobacterium tuberculosis; conditions: 10 µM, 1 h pre‐incubation, diluted to 100 nM, 4‐h course
[4] = tested on: ClpP1(7‐200) ClpP2(16‐214) enzyme complex; assay: Intact protein MS; type: binding, Mycobacterium tuberculosis; conditions: 100 μM compound, 10 μM enzyme, 1 h
Protocol: 10 μM of the ClpP1(7‐200) ClpP2(16‐214) enzyme complex was incubated with DMSO (as negative control) and 100 μM GDI‐5755 separately in 30 mM PIPES buffer only at room temperature in a final reaction volume of 40 μl. After 1 h of incubation, the samples were sent to a service lab at Peking University for a Matrix‐Assisted Laser Desorption/Ionization (MALDI) Time‐of‐Flight (TOF) MS analysis.

[5] = tested on: M. tuberculosis H37Rv; design: method as in PubChem; conditions: ref PubChem; cited from earlier work

O=C(Oc1ccc(Cl)cc1)c1ccc(N2CCOCC2)c([N+](=O)[O-])c1 [GDI‐5755]
stability in protein‐free buffer [1]: susceptible to hydrolysis
MIC shift against GH200 on ATc induction [2]: did not show shifting
recovery of peptidase activity after jump dilution [3]: did not show recovery of peptidase activity
mass difference between new species and ClpP1 [4]: 234.30 Da
mass of ClpP2 after treatment [4]: unchanged
MIC against H37Rv, reported [5]: 3.16 µM (≈ 1.15 µg/mL)

— publication PMC12042115 (mLife, 2025)
